{
  "source": "patent EP2067489B1",
  "about": "“Glyco-molecular imaging method for grade classification of liver fibrosis and its glyco-molecular imaging agent thereof” (Institute of Nuclear Energy Research Atomic Energy Council, priority 2007, dated 2009)",
  "assay": "Storage stability at room temperature",
  "type": "physicochemical",
  "conditions": "stability to air and water-deliquescence",
  "data": [
    {"smiles": "O=C(O)CN(CCN1CC(=O)OC(=O)C1)CCN1CC(=O)OC(=O)C1", "note": "[DTPA anhydride]", "values": [
      {"measurement": "storage time in room temperature", "value": "much unstable and easy to water-deliquescent"}
    ]}
  ]
}
